The experiment has as its target T1, HIV integrase (Human immunodeficiency virus type 1 group M subtype B, UniProt P12497, F1332H).
T1 construct: HIV integrase full length gene; made in house; host or cells: Escherichia coli BL21(DE3)
Put plainly: Determination of enzyme (HIV integrase) inhibitory activity (strand transfer, microtiter plate, absorbance at 450 nm). The format is biochemical, HIV (Human Immunodeficiency Virus (type 1)). The settings on record: recombinant HIV integrase (F185H) expressed in E. coli; donor DNA on streptavidin plate, digoxigenin target DNA; 37° C. The protocol:
The following explains evaluation methods of the HIV integrase inhibitory activity of the compound of the present invention.
(i) Construction of Recombinant Integrase Gene Expression System
(ii) Production and Purification of Integrase Protein
Escherichia coli recombinant BL21(DE3) transformed with plasmid pET21a-IN-F185H obtained in (i) was shake cultured at 30° C. in a liquid medium containing ampicillin. When the culture reached the logarithmic growth phase, isopropyl-β-D-thiogalactopyranoside was added to promote expression of integrase gene. The culture was continued for 3 hrs to promote accumulation of the integrase protein. The recombinant E. coli was collected in pellets by centrifugal separation and preserved at −80° C.
The E. coli was suspended in Lysis buffer (20 mM HEPES (pH 7.5), 5 mM DTT, 10 mM CHAPS, 10% glycerol) containing 1M sodium chloride and subjected to repeat pressurization and depressurization for rupture, and centrifugal separation at 4° C., 40,000×g, 60 min to recover a water-soluble fraction (supernatant). This was diluted 10-fold with Lysis buffer free of sodium chloride, mixed with SP-Sepharose (Pharmacia Corporation) and stirred at 4° C. for 60 min to allow adsorption of integrase protein to the resin. The resin was washed with Lysis buffer containing 100 mM sodium chloride and the integrase protein was eluted with Lysis buffer containing 1M sodium chloride.
The eluted integrase protein solution was applied to a Superdex 75 (Pharmacia Corporation) column for gel filtration. The protein was eluted with Lysis buffer containing 1M sodium chloride.
The obtained fractions of the integrate protein were collected and preserved at −80° C.
(iii) Preparation of DNA Solution
The following DNA synthesized by Greiner was dissolved in TE buffer (10 mM Tris-hydrochloric acid (pH 8.0), 1 mM EDTA) and mixed with donor DNA, target DNA, each complementary strand (+ and − strands) to 1 μM. The mixture was heated at 95° C. for 5 min, 80° C. for 10 min, 70° C. for 10 min, 60° C. for 10 min, 50° C. for 10 min and 40° C. for 10 min and preserved at 25° C. to give a double stranded DNA, which was used for the test. Donor DNA (− strand having biotin attached to the 5′ terminal)
(iv) Determination of Enzyme (HIV Integrase) Inhibitory activity
The donor DNA was diluted with TE buffer to 10 nM, of which 50 μl was added to each well of streptavidin-coated microtiter plate (Roche) and allowed to adsorb at 37° C. for 60 min. The DNA was washed with phosphate buffer (Dulbecco PBS, Sanko Junyaku Co., Ltd.) containing 0.1% Tween 20 and phosphate buffer. Then, a reaction mixture (70 μl) having the following composition, a test substance (10 μl) diluted with the reaction mixture and […] integrase protein (10 μl) were added to each well and reacted at 37° C. for 60 min.
Then, 50 nM target DNA (1.0 μl) was added, reacted at 37° C. for 10 min and washed with phosphate buffer containing 0.1% Tween 20 to stop the reaction.
Then, 100 mU/ml peroxidase labeled anti-digoxigenin antibody solution (Roche, 100 μl) was added, and the mixture was reacted at 37° C. for 60 min, followed by washing with phosphate buffer containing 0.1% Tween 20.
A peroxidase color solution (Bio Rad, 100 μl) was added and allowed to react at room temperature for 4 min. The color reaction was stopped by adding 1N sulfuric acid (100 μl). The absorbance at 450 nm was measured.
The HIV integrase inhibitory activity (IC50) of the compound of the present invention was calculated from the inhibition rate according to the following formula. […] Evaluation of Antiviral Activity

pIC50: −log10 of the molar value.

Take `O=C(O)c1cn(CCO)c2cc(N3CCCC3)c(Cc3cccc(Cl)c3F)cc2c1=O` [Example 3-66, 6-(3-Chloro-2-fluorobenzyl)-1-(2-hydroxyethyl)-4-oxo-7-pyrrolidin-1-yl-1,4-dihydroquinoline-3-carboxylic acid]: the pIC50 was 7.32. With `CC[C@H](C)[C@@H](CO)n1cc(C(=O)O)c(=O)c2cc(Cc3cccc(Cl)c3F)c(OC(C)C)cc21` [Example 4-39, 6-(3-Chloro-2-fluorobenzyl)-1-((1S,2S)-1-hydroxymethyl-2-methylbutyl)-7-isopropyloxy-4-oxo-1,4-dihydroquinoline-3-carboxylic acid] the figure was 8.39; with `O=C(O)c1cn(CCO)c2ccc(Cc3c(F)cccc3Cl)cc2c1=O` [Example 1-33, 6-(2-Chloro-6-fluorobenzyl)-1-(2-hydroxyethyl)-4-oxo-1,4-dihydroquinoline-3-carboxylic acid], 6.85; with `CCOc1cc2c(cc1Cc1cccc(Cl)c1F)c(=O)c(C(=O)O)cn2CCO` [Example 3-44, 6-(3-Chloro-2-fluorobenzyl)-7-ethoxy-1-(2-hydroxyethyl)-4-oxo-1,4-dihydroquinoline-3-carboxylic acid], 8.02. With `Nc1cc(Cc2cccc(Cl)c2F)cc2c(=O)c(C(=O)O)cn(CCO)c12` [Example 3-35, 8-Amino-6-(3-chloro-2-fluorobenzyl)-1-(2-hydroxyethyl)-4-oxo-1,4-dihydroquinoline-3-carboxylic acid], the pIC50 is 7.96.

As for `CCOc1cc2c(cc1Cc1cccc(Cl)c1F)c(=O)c(C(=O)O)cn2[C@H](CO)C1CCCCC1` [Example 4-43, (S)-6-(3-Chloro-2-fluorobenzyl)-1-(1-cyclohexyl-2-hydroxyethyl)-7-ethoxy-4-oxo-1,4-dihydroquinoline-3-carboxylic acid], the pIC50 is 8.55. Regarding `CNC(=O)Cn1cc(C(=O)O)c(=O)c2cc(Cc3cccc(Cl)c3Cl)ccc21` [Example 1-6, 6-(2,3-Dichlorobenzyl)-1-methylcarbamoylmethyl-4-oxo-1,4-dihydroquinoline-3-carboxylic acid], the pIC50 is 6.85. As for `CNc1cc(Cc2cccc(Cl)c2F)cc2c(=O)c(C(=O)O)cn(CCO)c12` [Example 3-48, 6-(3-Chloro-2-fluorobenzyl)-1-(2-hydroxyethyl)-8-methylamino-4-oxo-1,4-dihydroquinoline-3-carboxylic acid], the pIC50 is 7.68.

On to `COc1cc(Cc2cccc(Cl)c2Cl)cc2c(=O)c(C(=O)O)cn(CCO)c12` [Example 3-14, 6-(2,3-Dichlorobenzyl)-1-(2-hydroxyethyl)-8-methoxy-4-oxo-1,4-dihydroquinoline-3-carboxylic acid], for which the pIC50 was 7.85.

With `NS(=O)(=O)Cn1cc(C(=O)O)c(=O)c2cc(Cc3c(F)cccc3Cl)ccc21` [Example 1-75, 6-(2-Chloro-6-fluorobenzyl)-1-sulfamoylmethyl-4-oxo-1,4-dihydroquinoline-3-carboxylic acid], the pIC50 is 7.80. Take `O=C(O)CCn1cc(C(=O)O)c(=O)c2cc(Cc3cccc(Cl)c3Cl)ccc21` [Example 1-10, 1-(2-Carboxyethyl)-6-(2,3-dichlorobenzyl)-4-oxo-1,4-dihydroquinoline-3-carboxylic acid]: the pIC50 is 7.14. In the case of `CC[C@@H](CO)n1cc(C(=O)O)c(=O)c2cc(Cc3cccc(Cl)c3F)c(OC)cc21` [Example 3-73, (S)-6-(3-Chloro-2-fluorobenzyl)-1-[1-(hydroxymethyl)propyl]-7-methoxy-4-oxo-1,4-dihydroquinoline-3-carboxylic acid] it was 8.48; in that of `CCOc1cc(Cc2cccc(Cl)c2F)cc2c(=O)c(C(=O)O)cn([C@H](CO)C3CCCCC3)c12` [Example 4-41, (S)-6-(3-Chloro-2-fluorobenzyl)-1-(1-cyclohexyl-2-hydroxyethyl)-8-ethoxy-4-oxo-1,4-dihydroquinoline-3-carboxylic acid], 8.64; in that of `O=C(O)c1cn(CCF)c2ccc(Cc3cccc(Cl)c3Cl)cc2c1=O` [Example 1-44, 6-(2,3-Dichlorobenzyl)-1-(2-fluoroethyl)-4-oxo-1,4-dihydroquinoline-3-carboxylic acid], 7.29.

As to `CC(=O)Cn1cc(C(=O)O)c(=O)c2cc(Cc3cccc(Cl)c3Cl)ccc21` [Example 1-14, 6-(2,3-Dichlorobenzyl)-4-oxo-1-(2-oxopropyl)-1,4-dihydroquinoline-3-carboxylic acid], the pIC50 is 7.12. With `CN(C)c1cc(Cc2cccc(Cl)c2F)cc2c(=O)c(C(=O)O)cn(CCO)c12` [Example 3-38, 6-(3-Chloro-2-fluorobenzyl)-8-dimethylamino-(2-hydroxyethyl)-4-oxo-1,4-dihydroquinoline-3-carboxylic acid], the pIC50 is 7.82. Take `O=C(O)c1cn(Cc2ccc(Cl)c(Cl)c2)c2ccc(Cc3cccc(Cl)c3Cl)cc2c1=O` [Example 1-23, 6-(2,3-dichlorobenzyl)-1-(3,4-dichlorobenzyl)-4-oxo-1,4-dihydroquinoline-3-carboxylic acid]: the pIC50 is 6.72. For the compound `CCN(CC)c1cc(Cc2cccc(Cl)c2F)cc2c(=O)c(C(=O)O)cn(CCO)c12` [Example 3-64, 6-(3-Chloro-2-fluorobenzyl)-8-diethylamino-1-(2-hydroxyethyl)-4-oxo-1,4-dihydroquinoline-3-carboxylic acid], the pIC50 is 7.74. `COc1cc(Cc2cccc(Cl)c2F)cc2c(=O)c(C(=O)O)cn([C@@H](C)CO)c12` [Example 3-56, (S)-6-(3-Chloro-2-fluorobenzyl)-1-(2-hydroxy-1-methylethyl)-8-methoxy-4-oxo-1,4-dihydroquinoline-3-carboxylic acid]: the pIC50 was 7.92.

Regarding `O=C(O)c1cn(CCO)c2cc(OCCCO)c(Cc3cccc(Cl)c3F)cc2c1=O` [Example 3-77, 6-(3-Chloro-2-fluorobenzyl)-1-(2-hydroxyethyl)-1-7-(3-hydroxypropyloxy)-4-oxo-1,4-dihydroquinoline-3-carboxylic acid], the pIC50 is 8.05.

For `O=C(O)c1cn(CCO)c2ccc(Cc3cccc(Br)c3)cc2c1=O` [Example 1-96], the pIC50 was 6.64. For `O=C(O)c1cn(CCO)c2ccc(Cc3cccc(F)c3F)cc2c1=O` [Example 1-50, 6-(2,3-Difluorobenzyl)-1-(2-hydroxyethyl)-4-oxo-1,4-dihydroquinoline-3-carboxylic acid], the pIC50 was 6.96. In the case of `COCCn1cc(C(=O)O)c(=O)c2cc(Cc3cccc(Cl)c3Cl)ccc21` [Example 1-26, 6-(2,3-Dichlorobenzyl)-1-(2-methoxyethyl)-4-oxo-1,4-dihydroquinoline-3-carboxylic acid], the pIC50 is 6.74. With `O=C(O)c1cn(CCO)c2c(OCC3CCCCC3)cc(Cc3cccc(Cl)c3F)cc2c1=O` [Example 3-69, 6-(3-Chloro-2-fluorobenzyl)-8-cyclohexylmethoxy-1-(2-hydroxyethyl)-4-oxo-1,4-dihydroquinoline-3-carboxylic acid] the figure was 8.37. In the case of `CCC[C@@H](CO)n1cc(C(=O)O)c(=O)c2cc(Cc3cccc(Cl)c3F)cc(OC)c21` [Example 4-49, (S)-6-(3-Chloro-2-fluorobenzyl)-1-[1-(hydroxymethyl)butyl]-8-methoxy-4-oxo-1,4-dihydroquinoline-3-carboxylic acid], the pIC50 is 8.24. Turning to `NC(=O)CCn1cc(C(=O)O)c(=O)c2cc(Cc3cccc(Cl)c3Cl)ccc21` [Example 1-13, 1-(2-Carbamoylethyl)-6-(2,3-dichlorobenzyl)-4-oxo-1,4-dihydroquinoline-3-carboxylic acid], the pIC50 was 6.85.

The pIC50 is the IC50 on a negative log10 scale, so that one unit is a factor of ten.

The values above are taken from patent US8232401B2 (Japan Tobacco Inc., priority 2002, dated 2012).
